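Tested at 5 concentrations; 48 h exposure; 96-well plates; endpoints linearly interpolated, else capped at highest concentration. GI50 = concentration required for 50% inhibition of growth. TGI: total growth inhibition.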
Experiments:
Assay in all cases: NCI-60 cell line screen, 48 h
UACC-62 melanoma = system: UACC-62 melanoma
NCI-H522 lung = system: NCI-H522 lung
SW-620 colon = system: SW-620 colon
U251 CNS = system: U251 CNS
NCI-H23 lung = system: NCI-H23 lung
M14 melanoma = system: M14 melanoma
KM12 colon = system: KM12 colon
A549 NSCLC = system: A549 NSCLC
MDA-MB-231 breast = system: MDA-MB-231 breast
HT29 colon = system: HT29 colon
HL-60(TB) leukemia = system: HL-60(TB) leukemia
DU-145 prostate = system: DU-145 prostate
UO-31 renal = system: UO-31 renal
OVCAR-3 ovarian = system: OVCAR-3 ovarian
SN12C renal = system: SN12C renal
SK-MEL-5 melanoma = system: SK-MEL-5 melanoma
UACC-257 melanoma = system: UACC-257 melanoma
MALME-3M melanoma = system: MALME-3M melanoma
PC-3 prostate = system: PC-3 prostate
SK-MEL-2 melanoma = system: SK-MEL-2 melanoma
MDA-MB-435 = system: MDA-MB-435
NCI-H460 lung = system: NCI-H460 lung
MOLT-4 leukemia = system: MOLT-4 leukemia
LOX IMVI melanoma = system: LOX IMVI melanoma
NCI/ADR-RES ovarian = system: NCI/ADR-RES ovarian
IGROV1 ovarian = system: IGROV1 ovarian
HCT-15 colon = system: HCT-15 colon
OVCAR-4 ovarian = system: OVCAR-4 ovarian

`O=C(NCc1cn(Cc2cccc(Oc3ccccc3)c2)nn1)c1cccnc1NCc1ccc(Cl)cc1` was tested, and the TGI (UACC-62 melanoma) was 6.92 µM, the GI50 (NCI-H522 lung) was 2.18 µM and the TGI (NCI-H522 lung) was 5.68 µM. It also gave a GI50 (SW-620 colon) of 4.04 µM, a TGI (SW-620 colon) of over 100 µM and a GI50 (U251 CNS) of 2.66 µM. It also gave a TGI (U251 CNS) of 8.7 µM, a GI50 (NCI-H23 lung) of 3.66 µM and a TGI (NCI-H23 lung) of over 100 µM. For the same compound, the GI50 (M14 melanoma) was 2.49 µM, the TGI (M14 melanoma) was 5.7 µM and the GI50 (KM12 colon) was 3.62 µM. The TGI (KM12 colon) was over 100 µM, the GI50 (A549 NSCLC) was 3.21 µM and the TGI (A549 NSCLC) was over 100 µM. For the same compound, the GI50 (MDA-MB-231 breast) was 2.29 µM, the TGI (MDA-MB-231 breast) was 6.14 µM and the GI50 (HT29 colon) was 2.96 µM. The TGI (HT29 colon) was 7.56 µM, the GI50 (HL-60(TB) leukemia) was 3.39 µM and the TGI (HL-60(TB) leukemia) was 8.07 µM. For the same compound, the GI50 (DU-145 prostate) was 4 µM, the TGI (DU-145 prostate) was over 100 µM and the GI50 (UO-31 renal) was 3 µM. For the same compound, the TGI (UO-31 renal) was over 100 µM, the GI50 (OVCAR-3 ovarian) was 3.48 µM and the TGI (OVCAR-3 ovarian) was 9.55 µM. For the same compound, the GI50 (SN12C renal) was 3.44 µM, the TGI (SN12C renal) was over 100 µM and the GI50 (SK-MEL-5 melanoma) was 2.53 µM. For the same compound, the TGI (SK-MEL-5 melanoma) was 7.4 µM, the GI50 (UACC-257 melanoma) was 3.83 µM and the TGI (UACC-257 melanoma) was over 100 µM. It also gave a GI50 (MALME-3M melanoma) of 5.69 µM, a TGI (MALME-3M melanoma) of over 100 µM and a GI50 (PC-3 prostate) of 2.96 µM. The TGI (PC-3 prostate) was over 100 µM, the GI50 (SK-MEL-2 melanoma) was 4.44 µM and the TGI (SK-MEL-2 melanoma) was over 100 µM. The GI50 (MDA-MB-435) was 2.33 µM, the TGI (MDA-MB-435) was 7.37 µM and the GI50 (NCI-H460 lung) was 2.85 µM. It also gave a TGI (NCI-H460 lung) of 7.83 µM, a GI50 (MOLT-4 leukemia) of 3.28 µM and a TGI (MOLT-4 leukemia) of 8.76 µM. For the same compound, the GI50 (LOX IMVI melanoma) was 3.9 µM, the TGI (LOX IMVI melanoma) was over 100 µM and the GI50 (NCI/ADR-RES ovarian) was 2.86 µM. It also gave a TGI (NCI/ADR-RES ovarian) of over 100 µM, a GI50 (IGROV1 ovarian) of 9.03 µM and a TGI (IGROV1 ovarian) of over 100 µM. It also gave a GI50 (HCT-15 colon) of 3.39 µM, a TGI (HCT-15 colon) of over 100 µM and a GI50 (OVCAR-4 ovarian) of 3.37 µM. For the same compound, the TGI (OVCAR-4 ovarian) was over 100 µM.

From PubChem BioAssay (NCI)
